Data: ChEMBL document CHEMBL1201862, “PubChem BioAssay data set” (2004)
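In this assay, cells in 96-well plates receive the compound at five concentrations for 48 hours. Endpoints are linearly interpolated between the surrounding concentrations. GI50: concentration for 50% inhibition of growth.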 The source made the active and inactive calls. Cut-off read from the data, not from the text of the source: active = GI50 up to about 1.1 µM and inactive = higher.

Legend:
Experiment in all cases: NCI-60 cell line screen, 48 h
[1] = tested on: SF-295
[2] = tested on: UO-31
[3] = tested on: SK-MEL-2
[4] = tested on: 786-0
[5] = tested on: M19-MEL
[6] = tested on: NCI-H23
[7] = tested on: TK-10
[8] = tested on: DMS-114
[9] = tested on: HCT-15
[10] = tested on: ACHN
[11] = tested on: HCC 2998
[12] = tested on: COLO 205
[13] = tested on: OVCAR-3
[14] = tested on: SK-MEL-5
[15] = tested on: NCI-H226
[16] = tested on: A549
[17] = tested on: SR
[18] = tested on: MDA-MB-435
[19] = tested on: MDA-MB-231
[20] = tested on: DU-145

Row | Compound | GI50 [1] | GI50 [2] | GI50 [3] | GI50 [4] | GI50 [5] | GI50 [6] | GI50 [7] | GI50 [8] | GI50 [9] [µM] | GI50 [10] | GI50 [11] | GI50 [12] | GI50 [13] | GI50 [14] | GI50 [15] | GI50 [16] | GI50 [17] | GI50 [18] | GI50 [19] | GI50 [20]
1 | O=C1Cc2ccccc2N1/N=C\c1ccc(O)cc1 | 77.4 µM (inactive) | 45.1 µM (inactive) | > 100 µM (inactive) | > 100 µM (inactive) | > 100 µM (inactive) | 71.1 µM (inactive) | > 100 µM (inactive) | 21.8 µM (inactive) | 91 | 53.7 µM (inactive) | > 100 µM (inactive) | > 100 µM (inactive) | > 100 µM (inactive) | 44.1 µM (inactive) | > 100 µM (inactive) | 64.9 µM (inactive) |  |  |  | 
2 | CCOc1ccc(-c2oc(/C=N/NS(=O)(=O)c3ccc(C)cc3)c([N+](=O)[O-])c2-c2ccc(OCC)cc2)cc1 | 14.4 µM (inactive) | 12.7 µM (inactive) | 19.9 µM (inactive) | 12.4 µM (inactive) | 3.72 µM (inactive) | 13.5 µM (inactive) | 22 µM (inactive) | 3.21 µM (inactive) | 5.65 | 10.9 µM (inactive) | 14.4 µM (inactive) | 17.5 µM (inactive) | 15.6 µM (inactive) | 6.76 µM (inactive) | 14.4 µM (inactive) | 19.4 µM (inactive) |  |  |  | 
3 | C[C@H](CCC1SC1(C)C)C1CCC2(C)C3=C(CC[C@]12C)[C@@]1(C)CC[C@H](O)C(C)(C)C1CC3 (stereo not given in full) | > 100 µM (inactive) | > 100 µM (inactive) | > 100 µM (inactive) | > 100 µM (inactive) |  | > 100 µM (inactive) | > 100 µM (inactive) | > 100 µM (inactive) | > 100 | 61 µM (inactive) | > 100 µM (inactive) | > 100 µM (inactive) | > 100 µM (inactive) | > 100 µM (inactive) | > 100 µM (inactive) | > 100 µM (inactive) | > 100 µM (inactive) |  |  | 
4 | O=C1C=Cc2noc3cccc1c23 | 18.6 µM (inactive) | 4.62 µM (inactive) | 7.4 µM (inactive) | 7.08 µM (inactive) | 3.18 µM (inactive) | 8.97 µM (inactive) | 18.4 µM (inactive) | 2.07 µM (inactive) | 3.08 | 2.76 µM (inactive) | 14.7 µM (inactive) | 17 µM (inactive) | 3.31 µM (inactive) | 10.5 µM (inactive) | 19.1 µM (inactive) | 19 µM (inactive) |  |  |  | 
5 | COc1c(Br)cc(Br)c(OC)c1-c1[nH]c(Br)c(Br)c1Br | 4.63 µM (inactive) | 2.13 µM (inactive) | 3.01 µM (inactive) | 10.7 µM (inactive) | 10.2 µM (inactive) | 2.98 µM (inactive) | 11.4 µM (inactive) | 4.8 µM (inactive) | 4.28 | 4.78 µM (inactive) | 6.76 µM (inactive) | 10.4 µM (inactive) | 3.66 µM (inactive) | 6.55 µM (inactive) | 5.7 µM (inactive) | 5.04 µM (inactive) |  |  |  | 
6 | CNc1nc(N)cc(O)n1 | > 100 µM (inactive) | > 100 µM (inactive) | > 100 µM (inactive) | > 100 µM (inactive) | > 100 µM (inactive) | > 100 µM (inactive) | > 100 µM (inactive) | > 100 µM (inactive) | > 100 | > 100 µM (inactive) | > 100 µM (inactive) | > 100 µM (inactive) | > 100 µM (inactive) | > 100 µM (inactive) | > 100 µM (inactive) | > 100 µM (inactive) |  |  |  | 
7 | C#CCN(Cc1ccc2nc(-c3ccccc3)c(Cl)nc2c1)c1cc(OC)c(OC)c(OC)c1 | > 100 µM (inactive) | > 100 µM (inactive) | > 100 µM (inactive) | > 100 µM (inactive) | > 100 µM (inactive) | > 100 µM (inactive) | > 100 µM (inactive) | 14.3 µM (inactive) | > 100 | 58.2 µM (inactive) | > 100 µM (inactive) | 57.1 µM (inactive) | > 100 µM (inactive) | 30.3 µM (inactive) | > 100 µM (inactive) | 86.9 µM (inactive) |  |  |  | 
8 | Nc1nc(Cl)cc(NCCCCCCCCCCNc2cc(Cl)nc(N)n2)n1 | 0.301 µM (active) | 11.3 µM (inactive) | 4.93 µM (inactive) | 21.5 µM (inactive) | 7.4 µM (inactive) | 0.415 µM (active) | 16.5 µM (inactive) |  | 3.55 | < 0.01 µM (active) | 22.8 µM (inactive) | 24.9 µM (inactive) | 1.82 µM (inactive) | 0.0982 µM (active) | 1.99 µM (inactive) | 3.21 µM (inactive) | 2.62 µM (inactive) |  |  | 
9 | Cc1ccc2nc(NC(=O)C(=O)C(C#N)c3ccc(Cl)cc3)sc2c1 (stereo not given) | > 50 µM (inactive) | > 50 µM (inactive) | > 50 µM (inactive) | > 50 µM (inactive) | > 50 µM (inactive) | > 50 µM (inactive) | > 50 µM (inactive) | > 50 µM (inactive) | > 50 | > 50 µM (inactive) | > 50 µM (inactive) | > 50 µM (inactive) | > 50 µM (inactive) |  | > 50 µM (inactive) | > 50 µM (inactive) |  |  |  | 
10 | CN(C)CC(/C(Cc1ccccc1)=N\NC(=O)c1ccncc1)c1ccccc1 (stereo not given) | 17.4 µM (inactive) |  | 18.9 µM (inactive) | 30 µM (inactive) | 30.1 µM (inactive) | 46.8 µM (inactive) | 34.2 µM (inactive) | 22.5 µM (inactive) |  | 27.5 µM (inactive) | 39.1 µM (inactive) | 30.8 µM (inactive) | 20.1 µM (inactive) | 19 µM (inactive) | 71.6 µM (inactive) | 30.3 µM (inactive) |  |  |  | 
11 | C[C@@]1(Cc2ccccc2)C(=O)N2[C@@H](CO)C(c3ccccc3)O[C@]2(C)c2ccccc21 (stereo not given in full) | 72.4 µM (inactive) | > 100 µM (inactive) | > 100 µM (inactive) | 52.7 µM (inactive) | > 100 µM (inactive) | > 100 µM (inactive) | > 100 µM (inactive) | > 100 µM (inactive) | > 100 | > 100 µM (inactive) |  | > 100 µM (inactive) | > 100 µM (inactive) | > 100 µM (inactive) | > 100 µM (inactive) | > 100 µM (inactive) | > 100 µM (inactive) |  |  | 
12 | O=[PH](O)c1ccccn1 | > 100 µM (inactive) | > 100 µM (inactive) |  | > 100 µM (inactive) | > 100 µM (inactive) | > 100 µM (inactive) | > 100 µM (inactive) | > 100 µM (inactive) | > 100 | > 100 µM (inactive) | > 100 µM (inactive) | > 100 µM (inactive) | > 100 µM (inactive) | > 100 µM (inactive) | > 100 µM (inactive) | > 100 µM (inactive) |  |  |  | 
13 | O=C(CC1=Nc2nnc(-c3nnc4n3C(=O)C(CC(=O)C3CC3)=N4)n2C1=O)C1CC1 | > 100 µM (inactive) | > 100 µM (inactive) | > 100 µM (inactive) | > 100 µM (inactive) | > 100 µM (inactive) | > 100 µM (inactive) | > 100 µM (inactive) | > 100 µM (inactive) | > 100 | > 100 µM (inactive) | > 100 µM (inactive) | > 100 µM (inactive) | > 100 µM (inactive) | > 100 µM (inactive) | > 100 µM (inactive) | > 100 µM (inactive) |  |  |  | 
14 | COC(=O)C(C)Oc1ccc(O)cc1 (stereo not given) | > 100 µM (inactive) | > 100 µM (inactive) |  | > 100 µM (inactive) | > 100 µM (inactive) | > 100 µM (inactive) | > 100 µM (inactive) | 19.6 µM (inactive) | > 100 | > 100 µM (inactive) | > 100 µM (inactive) | > 100 µM (inactive) | > 100 µM (inactive) | > 100 µM (inactive) | > 100 µM (inactive) | 63 µM (inactive) |  |  |  | 
15 | O=C1c2ccccc2C(=O)c2c1ccc(O)c2O [ATHRAQUINONES A] | 57.3 µM (inactive) | 36.6 µM (inactive) | 43 µM (inactive) | 63 µM (inactive) | 72.4 µM (inactive) | 41.6 µM (inactive) | > 100 µM (inactive) |  | 37.1 | 34.8 µM (inactive) | 33.1 µM (inactive) | 34.5 µM (inactive) | 32.9 µM (inactive) |  | 94.8 µM (inactive) | > 10 µM (inactive) | 34.8 µM (inactive) |  |  | 
16 | COC(=O)[C@]12CC[C@H]3CC[C@H]([C@H]31)[C@H](c1ccccc1)N2 | 16.3 µM (inactive) | 17.4 µM (inactive) | 15.2 µM (inactive) | 15.7 µM (inactive) |  | 16.8 µM (inactive) | 17.2 µM (inactive) |  | 18.2 | 17.6 µM (inactive) | 13.5 µM (inactive) | 16.5 µM (inactive) | 15.2 µM (inactive) | 14.7 µM (inactive) | 15.4 µM (inactive) | 17.7 µM (inactive) | 12.1 µM (inactive) | 18.3 µM (inactive) | 16.3 µM (inactive) | 18.5 µM (inactive)
17 | O=c1[nH]nc(-c2ccccc2)n1O | > 100 µM (inactive) | > 100 µM (inactive) | > 100 µM (inactive) | > 100 µM (inactive) |  | > 100 µM (inactive) | > 100 µM (inactive) |  | > 100 | > 100 µM (inactive) | > 100 µM (inactive) | > 100 µM (inactive) | > 100 µM (inactive) | > 100 µM (inactive) | > 100 µM (inactive) | > 100 µM (inactive) | > 100 µM (inactive) | > 100 µM (inactive) | > 100 µM (inactive) | > 100 µM (inactive)
18 | COc1ccc(OC)c(N2CC(N)C2=O)c1 (stereo not given) | > 100 µM (inactive) | > 100 µM (inactive) | > 100 µM (inactive) | > 100 µM (inactive) | > 100 µM (inactive) | > 100 µM (inactive) | > 100 µM (inactive) |  | > 100 | > 100 µM (inactive) | > 100 µM (inactive) | > 100 µM (inactive) | > 100 µM (inactive) | > 100 µM (inactive) | > 100 µM (inactive) | > 100 µM (inactive) |  |  |  | 
